# In patent US10233195B2, “Anti-fibrotic pyridinones” (InterMune, Inc., priority 2014, dated 2019):
# Tests used:
# [1] = system: TGF-b induced Endothelin-1 production; test: ET-1 assay: inhibitory effect on TGF-b induced endothelin-1 production; assay type: cell-based; settings: Homo sapiens, Fibroblast; fibroblasts, stimulant (TGFb, serum, LPA etc), ET-1 in media by ELISA, 4-parameter fit
# Summary of the method: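 Fibroblasts (primary human lung/dermal, HFL-1, 3T3) serum-starved 0-48 h, preincubated ~30 min with compound, then stimulated (TGFb, serum or LPA) for 16-48 h. Secreted ET-1 measured by ELISA; EC50 from 4-parameter logistic fit, with CC50 from ATPlite in the same wells.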
# [2] = system: Fibroblasts (primary human lung and dermal, HFL-1, 3T3 etc); test: Cell proliferation assay (BrdU incorporation); assay type: cell-based; settings: HFL1, stimulant (LPA, TGFb, serum etc), 50% inhibition of the increase of BrdU incorporation
# Method: Assay of Inhibitory Effect on Cell Proliferation (BrdU Incorporation)
# Fibroblasts (primary human lung and dermal, HFL-1, 3T3 etc) were plated on a 96-well plate and serum starved for 24-48 hours. The media were then exchanged for media containing stimulants (LPA, TGFb, serum etc) and cultured further for 16-24 hours before BrdU addition. After culturing for another 8 hours, cells were washed with PBS and the amount of BrdU incorporated into the cells was assayed by absorbance at 450 nm using the Cell proliferation ELISA system (RPN250, Amersham LIFE SCIENCE). The difference between the amount of BrdU incorporated in the stimulant-added well and the amount of BrdU incorporated in the well containing no stimulant represented the amount of BrdU incorporation accelerated by stimulant. The increase of BrdU incorporation without the addition of test compounds was set as 100% and the concentration of compound with 50% inhibition in the increase of BrdU incorporation (IC50 value) was determined. The test compounds were added 0-30 min before stimulant addition.
# Compounds of some embodiments were prepared according to synthetic methods described herein and assay data obtained for IC50 for BrdU inhibition. The assay data obtained is presented in Table 3, in which A=less than 50 μM, B=greater than or equal to 50 μM and less than or equal to 200 μM; and C=greater than 200 μM.
Compound,EC50 [1],IC50 [2]
Cc1cc(=O)n(-c2ccc(OC(F)(F)F)cc2)cc1-c1ccc2c(c1)OCCO2 [Compound 201],50 to 200 µM,< 50 µM
Cc1cc(=O)n(-c2ccc(OC(F)(F)F)cc2)cc1-c1ccc2c(c1)OCO2 [Compound 202],50 to 200 µM,< 50 µM
Cc1cc(=O)n(-c2ccc(OC(F)(F)F)cc2)cc1-c1cccc2c1OCO2 [Compound 203],< 50 µM,< 50 µM
Cc1cc(=O)n(-c2ccc(OC(F)(F)F)cc2)cc1-c1cccc2c1OCCO2 [Compound 204],< 50 µM,< 50 µM
Cc1cc(=O)n(-c2ccc(OC(F)(F)F)cc2)cc1-c1ccc(-c2cncs2)cc1 [Compound 206],50 to 200 µM,< 50 µM
Cc1cc(=O)n(-c2ccc(OC(F)(F)F)cc2)cc1-c1cccc2c1OC(C)(C)O2 [Compound 207],50 to 200 µM,< 50 µM
Cc1cc(=O)n(-c2ccc(OC(F)(F)F)cc2)cc1-c1ccc2c(c1)OC(F)(F)O2 [Compound 208],50 to 200 µM,50 to 200 µM
Cc1cc(=O)n(-c2ccc(OC(F)(F)F)cc2)cc1-c1ccc2c(c1)NC(=O)CO2 [Compound 209],< 50 µM,< 50 µM
Cc1cc(=O)n(-c2ccc(OC(F)(F)F)cc2)cc1-c1ccc2c(c1)N(C)C(=O)CO2 [Compound 210],< 50 µM,> 200 µM
Cc1ccc(-n2cc(-c3ccc(F)cc3)c(C)cc2=O)cc1 [Compound 216],50 to 200 µM,< 50 µM
Cc1cc(=O)n(-c2ccc(OC(F)(F)F)cc2)cc1-c1cn[nH]c1 [Compound 218],< 50 µM,< 50 µM
CCOc1ccc(-n2cc(-c3cn[nH]c3)c(C)cc2=O)c(C)c1 [Compound 219],50 to 200 µM,> 200 µM
Cc1cc(=O)n(-c2ccc(Cl)cc2C)cc1-c1cnn(C)c1 [Compound 229],50 to 200 µM,< 50 µM
Cc1cc(=O)n(-c2ccc(OC(C)C)cc2C)cc1-c1cnn(C)c1 [Compound 234],> 200 µM,> 200 µM
Cc1cc(=O)n(-c2ccc(OC(F)(F)F)cc2)cc1-c1c(C)nn(C)c1C [Compound 237],50 to 200 µM,< 50 µM
Cc1cc(=O)n(-c2ccc(OC(F)(F)F)cc2)cc1-c1cn(C)nc1C(F)(F)F [Compound 238],50 to 200 µM,< 50 µM
Cc1cc(=O)n(-c2ccc(OC(F)(F)F)cc2)cc1-c1ccnnc1 [Compound 243],50 to 200 µM,> 200 µM
Cc1cc(=O)n(-c2ccc(OC(F)(F)F)cc2)cc1-c1ccc2scnc2c1 [Compound 251],< 50 µM,< 50 µM
Cc1cc(=O)n(-c2ccc(OC(F)(F)F)cc2)cc1-c1ccc2nccn2c1 [Compound 252],50 to 200 µM,50 to 200 µM
Cc1cc(=O)n(-c2ccc(OC(F)(F)F)cc2)cc1-c1ccc2ocnc2c1 [Compound 254],< 50 µM,< 50 µM
Cc1cc(=O)n(-c2ccc(OC(F)(F)F)cc2)cc1-c1ccc2ccn(C)c2c1 [Compound 258],< 50 µM,< 50 µM
Cc1cc(=O)n(-c2ccc(OC(F)(F)F)cc2)cc1-c1ccc2nonc2c1 [Compound 259],50 to 200 µM,< 50 µM
Cc1cc(=O)n(-c2ccc(OC(F)(F)F)cc2)cc1-c1ccc2ncsc2c1 [Compound 260],50 to 200 µM,< 50 µM
Cc1cc(=O)n(-c2ccc(OC(F)(F)F)cc2)cc1-c1cccc2scnc12 [Compound 261],> 200 µM,< 50 µM
Cc1cc(=O)n(-c2ccc(OC(F)(F)F)cc2)cc1-c1cscn1 [Compound 262],50 to 200 µM,< 50 µM
Cc1cc(=O)n(-c2ccc(OC(F)(F)F)cc2)cc1-c1cccc2ncsc12 [Compound 263],< 50 µM,< 50 µM

Compound,EC50 [1],IC50 [2]
COc1cccc(-n2cc(C(F)(F)F)ccc2=O)c1 [Compound 276],> 200 µM,> 200 µM
CCOc1ccc(-n2cc(C(F)(F)F)ccc2=O)c(C)c1 [Compound 278],50 to 200 µM,50 to 200 µM
Cc1ccc(=O)n(-c2cc(F)c(F)c(F)c2)c1 [Compound 282],> 200 µM,> 200 µM
CC(C)c1ccc(=O)n(-c2ccccc2)c1 [Compound 285],> 200 µM,> 200 µM
O=c1ccc(-c2ccc(F)cc2)cn1-c1ccccc1F [Compound 290],50 to 200 µM,> 200 µM
O=c1ccc(-c2ccccc2)cn1-c1cncnc1 [Compound 300],> 200 µM,> 200 µM
CC(C)Oc1ccc(-n2cc(-c3cccc(Cl)c3)ccc2=O)cc1 [Compound 316],< 50 µM,< 50 µM
Cc1ccc(=S)n(-c2ccc(OC(F)(F)F)cc2)c1 [Compound 333],50 to 200 µM,> 200 µM
Cc1cc(-c2ccc(F)cc2)cn(-c2ccc(OC(F)(F)F)cc2)c1=O [Compound 350],50 to 200 µM,50 to 200 µM
Cc1cc(-c2ccc(F)cc2)cn(-c2ccccc2)c1=O [Compound 351],< 50 µM,50 to 200 µM
Cc1cc(-c2cnn(C)c2)cn(-c2ccccc2)c1=O [Compound 353],50 to 200 µM,> 200 µM
Cc1ccc(=O)n(-c2ccc(OC(F)(F)F)cc2)n1 [Compound 360],< 50 µM,50 to 200 µM
O=c1ccc(-c2cn[nH]c2)cn1-c1ccc(OC(F)(F)F)cc1 [Compound 374],< 50 µM,50 to 200 µM
CCOc1ccc(-n2cc(-c3cn[nH]c3)ccc2=O)c(C)c1 [Compound 376],< 50 µM,> 200 µM
Cc1n[nH]c(C)c1-c1ccc(=O)n(-c2ccc(OC(F)(F)F)cc2)c1 [Compound 383],50 to 200 µM,50 to 200 µM
O=c1ccc(-c2cnn(Cc3ccccc3)c2)cn1-c1ccccc1 [Compound 385],50 to 200 µM,< 50 µM
CCOc1ccc(-n2cc(-c3c(C)n[nH]c3C)ccc2=O)c(C)c1 [Compound 387],50 to 200 µM,50 to 200 µM
Cc1c(-c2ccc(=O)n(-c3ccc(OC(F)(F)F)cc3)c2)cnn1C [Compound 391],< 50 µM,50 to 200 µM
Cn1cc(-c2cn(-c3ccc(OC(F)(F)F)cc3)c(=O)c3c2ccn3C)cn1 [Compound 394],< 50 µM,< 50 µM
Cn1cc(-c2cn(-c3ccc(C#N)cc3)c(=O)c3cccnc23)cn1 [Compound 395],50 to 200 µM,50 to 200 µM
O=c1c2nccnc2c(-c2cn[nH]c2)cn1-c1ccc(Cl)cc1 [Compound 399],> 200 µM,< 50 µM
O=c1c2nccnc2c(-c2cn[nH]c2)cn1-c1ccc(OC(F)(F)F)cc1 [Compound 400],< 50 µM,< 50 µM
Cn1cc(-c2cn(-c3ccc(OC(F)(F)F)cc3)c(=O)cc2C#N)cn1 [Compound 402],< 50 µM,> 200 µM
CCOc1ccc(-n2cc(-c3cnn(C)c3)c(Oc3ccccc3)cc2=O)c(C)c1 [Compound 403],< 50 µM,< 50 µM
Cn1cc(-c2cn(-c3ccc(OC(F)(F)F)cc3)c(=O)cc2NCc2ccc(F)cc2F)cn1 [Compound 404],< 50 µM,< 50 µM
Cn1cc(-c2cn(-c3ccc(OC(F)(F)F)cc3)c(=O)cc2NCc2ccc(Cl)cc2Cl)cn1 [Compound 405],< 50 µM,< 50 µM
